Laboratory results as given in ChEMBL document CHEMBL4507269, “Data for DCP probe BAY-386” (2021).

What was measured:
[1] = target: Somatostatin receptor type 4 (Homo sapiens) (UniProt P31391); assay: sst4 (h) Eurofins-Cerep Cellular and Nuclear Receptor Functional Assays; settings: Compound concentration 10.0 uM
[2] = tested on: Tyrosine-protein kinase ABL1 (Homo sapiens), P00519 [F317I]; settings: Compound concentration 1000.0 nM
[3] = tested on: Tyrosine-protein kinase ABL1 (Homo sapiens), P00519 [F317L]; settings: Compound concentration 1000.0 nM
[4] = target: Activin receptor type-2B (Homo sapiens) (UniProt Q13705); settings: Compound concentration 1000.0 nM
[5] = target: Tyrosine-protein kinase receptor UFO (Homo sapiens) (UniProt P30530); settings: Compound concentration 1000.0 nM
[6] = target: BMP-2-inducible protein kinase (Homo sapiens) (UniProt Q9NSY1); settings: Compound concentration 1000.0 nM
[7] = target: Cyclin-dependent kinase 5 (Homo sapiens) (UniProt Q00535); settings: Compound concentration 1000.0 nM
[8] = target: Dual specificity protein kinase CLK2 (Homo sapiens) (UniProt P49760); settings: Compound concentration 1000.0 nM
[9] = target: Dual specificity protein kinase CLK4 (Homo sapiens) (UniProt Q9HAZ1); settings: Compound concentration 1000.0 nM
[10] = target: Casein kinase I isoform gamma-3 (Homo sapiens) (UniProt Q9Y6M4); settings: Compound concentration 1000.0 nM
[11] = tested on: Epidermal growth factor receptor (Homo sapiens), P00533 [UNDEFINED MUTATION]; settings: Compound concentration 1000.0 nM
[12] = target: Ephrin type-A receptor 7 (Homo sapiens) (UniProt Q15375); settings: Compound concentration 1000.0 nM
[13] = target: Mitogen-activated protein kinase 4 (Homo sapiens) (UniProt P31152); settings: Compound concentration 1000.0 nM
[14] = target: Tyrosine-protein kinase Fer (Homo sapiens) (UniProt P16591); settings: Compound concentration 1000.0 nM
[15] = target: Fibroblast growth factor receptor 3 (Homo sapiens) (UniProt P22607); settings: Compound concentration 1000.0 nM
[16] = target: Rhodopsin kinase GRK1 (Homo sapiens) (UniProt Q15835); settings: Compound concentration 1000.0 nM
[17] = target: Homeodomain-interacting protein kinase 1 (Homo sapiens) (UniProt Q86Z02); settings: Compound concentration 1000.0 nM
[18] = target: Homeodomain-interacting protein kinase 3 (Homo sapiens) (UniProt Q9H422); settings: Compound concentration 1000.0 nM
[19] = target: Interleukin-1 receptor-associated kinase 3 (Homo sapiens) (UniProt Q9Y616); settings: Compound concentration 1000.0 nM
[20] = tested on: Mast/stem cell growth factor receptor Kit (Homo sapiens), P10721 [V559D]; settings: Compound concentration 1000.0 nM
[21] = target: LIM domain kinase 2 (Homo sapiens) (UniProt P53671); settings: Compound concentration 1000.0 nM
[22] = target: Serine/threonine-protein kinase STK11 (Homo sapiens) (UniProt Q15831); settings: Compound concentration 1000.0 nM
[23] = target: Leucine-rich repeat serine/threonine-protein kinase 2 (Homo sapiens) (UniProt Q5S007); settings: Compound concentration 1000.0 nM
[24] = target: Mitogen-activated protein kinase kinase kinase 1 (Homo sapiens) (UniProt Q13233); settings: Compound concentration 1000.0 nM
[25] = target: Microtubule-associated serine/threonine-protein kinase 1 (Homo sapiens) (UniProt Q9Y2H9); settings: Compound concentration 1000.0 nM
[26] = target: MAP kinase-interacting serine/threonine-protein kinase 2 (Homo sapiens) (UniProt Q9HBH9); settings: Compound concentration 1000.0 nM
[27] = target: Serine/threonine-protein kinase 26 (Homo sapiens) (UniProt Q9P289); settings: Compound concentration 1000.0 nM
[28] = target: Myosin-IIIa (Homo sapiens) (UniProt Q8NEV4); settings: Compound concentration 1000.0 nM
[29] = target: Serine/threonine-protein kinase Nek5 (Homo sapiens) (UniProt Q6P3R8); settings: Compound concentration 1000.0 nM
[30] = target: Serine/threonine-protein kinase PAK 3 (Homo sapiens) (UniProt O75914); settings: Compound concentration 1000.0 nM
[31] = target: Cyclin-dependent kinase 17 (Homo sapiens) (UniProt Q00537); settings: Compound concentration 1000.0 nM
[32] = target: Phosphatidylinositol 4-kinase beta (Homo sapiens) (UniProt Q9UBF8); settings: Compound concentration 1000.0 nM
[33] = target: Serine/threonine-protein kinase pim-2 (Homo sapiens) (UniProt Q9P1W9); settings: Compound concentration 1000.0 nM
[34] = target: Phosphatidylinositol 4-phosphate 5-kinase type-1 gamma (Homo sapiens) (UniProt O60331); settings: Compound concentration 1000.0 nM
[35] = target: Serine/threonine-protein kinase PLK4 (Homo sapiens) (UniProt O00444); settings: Compound concentration 1000.0 nM
[36] = target: Protein kinase C delta type (Homo sapiens) (UniProt Q05655); settings: Compound concentration 1000.0 nM
[37] = target: Serine/threonine-protein kinase D3 (Homo sapiens) (UniProt O94806); settings: Compound concentration 1000.0 nM
[38] = target: Ribosomal protein S6 kinase alpha-1 (Homo sapiens) (UniProt Q15418); settings: Compound concentration 1000.0 nM
[39] = target: Serine/threonine-protein kinase TAO2 (Homo sapiens) (UniProt Q9UL54); settings: Compound concentration 1000.0 nM
[40] = target: Serine/threonine-protein kinase TBK1 (Homo sapiens) (UniProt Q9UHD2); settings: Compound concentration 1000.0 nM
[41] = target: TRAF2 and NCK-interacting protein kinase (Homo sapiens) (UniProt Q9UKE5); settings: Compound concentration 1000.0 nM
[42] = target: Testis-specific serine/threonine-protein kinase 1 (Homo sapiens) (UniProt Q9BXA7); settings: Compound concentration 1000.0 nM
[43] = target: Tyrosine-protein kinase receptor TYRO3 (Homo sapiens) (UniProt Q06418); settings: Compound concentration 1000.0 nM
[44] = target: Serine/threonine-protein kinase 32B (Homo sapiens) (UniProt Q9NY57); settings: Compound concentration 1000.0 nM
[45] = target: Histamine H1 receptor (Homo sapiens) (UniProt P35367); settings: Compound concentration 10.0 uM

Chain of Somatostatin receptor type 4 (Homo sapiens) (P31391 whole entry): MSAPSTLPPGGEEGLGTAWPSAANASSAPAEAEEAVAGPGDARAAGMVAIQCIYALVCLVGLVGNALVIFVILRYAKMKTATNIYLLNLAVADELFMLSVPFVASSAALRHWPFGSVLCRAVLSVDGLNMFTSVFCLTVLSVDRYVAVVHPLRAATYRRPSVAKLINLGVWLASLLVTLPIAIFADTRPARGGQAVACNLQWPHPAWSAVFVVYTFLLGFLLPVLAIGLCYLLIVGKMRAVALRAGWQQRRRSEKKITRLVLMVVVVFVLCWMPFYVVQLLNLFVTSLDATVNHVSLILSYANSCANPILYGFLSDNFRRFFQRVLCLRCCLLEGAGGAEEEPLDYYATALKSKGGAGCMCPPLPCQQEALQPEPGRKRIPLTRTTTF
Chain of Serine/threonine-protein kinase 26 (Homo sapiens) (Q9P289 2-416 limits assumed): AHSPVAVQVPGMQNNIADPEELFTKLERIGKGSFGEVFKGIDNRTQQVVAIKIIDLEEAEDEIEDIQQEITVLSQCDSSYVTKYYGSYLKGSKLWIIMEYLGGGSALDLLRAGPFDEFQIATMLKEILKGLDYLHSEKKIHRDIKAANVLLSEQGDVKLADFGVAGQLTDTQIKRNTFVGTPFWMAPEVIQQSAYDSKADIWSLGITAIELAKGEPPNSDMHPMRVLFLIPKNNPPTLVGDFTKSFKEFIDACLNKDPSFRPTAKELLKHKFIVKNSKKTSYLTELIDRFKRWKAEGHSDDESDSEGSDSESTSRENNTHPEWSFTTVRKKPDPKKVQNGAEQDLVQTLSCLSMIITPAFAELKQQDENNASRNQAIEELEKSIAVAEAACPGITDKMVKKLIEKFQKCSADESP
Chain of Tyrosine-protein kinase receptor UFO (Homo sapiens) (P30530 whole entry): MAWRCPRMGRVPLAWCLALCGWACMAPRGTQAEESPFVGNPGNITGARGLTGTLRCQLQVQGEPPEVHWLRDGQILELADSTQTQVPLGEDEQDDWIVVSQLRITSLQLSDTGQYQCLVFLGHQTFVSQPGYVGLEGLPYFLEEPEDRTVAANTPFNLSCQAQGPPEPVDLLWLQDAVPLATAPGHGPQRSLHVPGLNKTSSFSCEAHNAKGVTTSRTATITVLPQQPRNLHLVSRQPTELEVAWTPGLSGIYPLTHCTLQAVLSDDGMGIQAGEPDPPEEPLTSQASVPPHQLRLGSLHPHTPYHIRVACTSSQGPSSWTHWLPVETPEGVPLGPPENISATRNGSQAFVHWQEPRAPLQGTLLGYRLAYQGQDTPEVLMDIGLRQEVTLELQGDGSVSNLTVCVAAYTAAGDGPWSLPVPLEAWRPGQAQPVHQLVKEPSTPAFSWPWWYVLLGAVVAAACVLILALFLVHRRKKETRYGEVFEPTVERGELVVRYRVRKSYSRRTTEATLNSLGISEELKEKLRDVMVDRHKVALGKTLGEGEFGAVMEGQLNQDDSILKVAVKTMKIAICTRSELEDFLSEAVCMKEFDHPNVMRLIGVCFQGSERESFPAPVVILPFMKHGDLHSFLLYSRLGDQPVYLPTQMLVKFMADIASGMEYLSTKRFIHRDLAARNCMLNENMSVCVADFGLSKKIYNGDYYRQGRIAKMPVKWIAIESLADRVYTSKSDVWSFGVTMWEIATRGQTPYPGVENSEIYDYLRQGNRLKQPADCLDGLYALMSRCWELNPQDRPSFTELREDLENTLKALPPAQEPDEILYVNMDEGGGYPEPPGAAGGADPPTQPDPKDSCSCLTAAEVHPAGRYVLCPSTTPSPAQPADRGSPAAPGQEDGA
Chain of Serine/threonine-protein kinase 32B (Homo sapiens) (Q9NY57 whole entry): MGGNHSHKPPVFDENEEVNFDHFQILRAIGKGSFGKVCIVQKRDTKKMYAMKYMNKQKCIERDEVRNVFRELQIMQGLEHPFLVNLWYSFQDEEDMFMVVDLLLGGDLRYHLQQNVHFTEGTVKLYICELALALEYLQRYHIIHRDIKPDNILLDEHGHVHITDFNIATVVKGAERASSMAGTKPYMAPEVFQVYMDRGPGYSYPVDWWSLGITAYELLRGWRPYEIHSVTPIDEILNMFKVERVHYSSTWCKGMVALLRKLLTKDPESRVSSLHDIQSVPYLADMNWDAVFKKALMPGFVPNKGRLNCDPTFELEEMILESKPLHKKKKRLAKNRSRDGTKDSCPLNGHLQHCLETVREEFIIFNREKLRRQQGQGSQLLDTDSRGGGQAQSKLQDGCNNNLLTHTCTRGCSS
Chain of Ephrin type-A receptor 7 (Homo sapiens) (Q15375 28-998 limits assumed): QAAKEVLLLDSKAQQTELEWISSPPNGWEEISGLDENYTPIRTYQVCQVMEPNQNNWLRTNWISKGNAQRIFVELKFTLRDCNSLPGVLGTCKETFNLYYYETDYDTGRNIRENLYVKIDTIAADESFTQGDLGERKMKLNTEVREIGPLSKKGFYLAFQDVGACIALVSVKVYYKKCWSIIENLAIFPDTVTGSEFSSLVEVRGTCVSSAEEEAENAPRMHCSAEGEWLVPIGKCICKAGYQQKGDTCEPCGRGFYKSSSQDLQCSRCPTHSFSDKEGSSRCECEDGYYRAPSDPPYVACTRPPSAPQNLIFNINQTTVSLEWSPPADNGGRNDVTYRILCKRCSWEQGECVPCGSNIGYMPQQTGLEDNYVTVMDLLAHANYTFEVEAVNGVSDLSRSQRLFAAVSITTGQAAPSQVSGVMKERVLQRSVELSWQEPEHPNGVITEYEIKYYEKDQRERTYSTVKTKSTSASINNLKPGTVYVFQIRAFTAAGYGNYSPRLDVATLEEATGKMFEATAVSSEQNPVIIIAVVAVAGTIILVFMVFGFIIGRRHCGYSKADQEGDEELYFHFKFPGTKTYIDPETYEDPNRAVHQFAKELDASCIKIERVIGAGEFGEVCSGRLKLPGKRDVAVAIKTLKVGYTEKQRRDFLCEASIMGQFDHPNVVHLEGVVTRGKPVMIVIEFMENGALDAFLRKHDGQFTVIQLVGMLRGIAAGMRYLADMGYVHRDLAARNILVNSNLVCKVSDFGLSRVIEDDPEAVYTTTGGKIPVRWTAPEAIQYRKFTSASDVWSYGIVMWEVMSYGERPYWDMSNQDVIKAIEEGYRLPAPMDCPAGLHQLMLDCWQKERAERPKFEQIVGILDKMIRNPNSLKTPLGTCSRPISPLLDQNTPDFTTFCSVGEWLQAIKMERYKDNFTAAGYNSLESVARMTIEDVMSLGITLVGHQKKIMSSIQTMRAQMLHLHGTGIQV
Chain of Serine/threonine-protein kinase STK11 (Homo sapiens) (Q15831 whole entry): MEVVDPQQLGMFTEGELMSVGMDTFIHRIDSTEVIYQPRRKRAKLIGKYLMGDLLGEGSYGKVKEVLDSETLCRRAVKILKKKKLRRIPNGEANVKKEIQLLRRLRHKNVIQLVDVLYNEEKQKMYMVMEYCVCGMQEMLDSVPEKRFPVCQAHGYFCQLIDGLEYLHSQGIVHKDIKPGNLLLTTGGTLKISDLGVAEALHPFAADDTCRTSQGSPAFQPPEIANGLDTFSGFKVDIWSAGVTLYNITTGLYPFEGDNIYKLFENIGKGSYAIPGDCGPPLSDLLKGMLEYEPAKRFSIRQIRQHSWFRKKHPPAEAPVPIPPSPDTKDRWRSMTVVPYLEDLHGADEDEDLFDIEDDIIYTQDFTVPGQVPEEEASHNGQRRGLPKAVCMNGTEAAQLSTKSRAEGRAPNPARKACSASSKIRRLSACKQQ
Chain of Tyrosine-protein kinase Fer (Homo sapiens) (P16591 whole entry, looked up): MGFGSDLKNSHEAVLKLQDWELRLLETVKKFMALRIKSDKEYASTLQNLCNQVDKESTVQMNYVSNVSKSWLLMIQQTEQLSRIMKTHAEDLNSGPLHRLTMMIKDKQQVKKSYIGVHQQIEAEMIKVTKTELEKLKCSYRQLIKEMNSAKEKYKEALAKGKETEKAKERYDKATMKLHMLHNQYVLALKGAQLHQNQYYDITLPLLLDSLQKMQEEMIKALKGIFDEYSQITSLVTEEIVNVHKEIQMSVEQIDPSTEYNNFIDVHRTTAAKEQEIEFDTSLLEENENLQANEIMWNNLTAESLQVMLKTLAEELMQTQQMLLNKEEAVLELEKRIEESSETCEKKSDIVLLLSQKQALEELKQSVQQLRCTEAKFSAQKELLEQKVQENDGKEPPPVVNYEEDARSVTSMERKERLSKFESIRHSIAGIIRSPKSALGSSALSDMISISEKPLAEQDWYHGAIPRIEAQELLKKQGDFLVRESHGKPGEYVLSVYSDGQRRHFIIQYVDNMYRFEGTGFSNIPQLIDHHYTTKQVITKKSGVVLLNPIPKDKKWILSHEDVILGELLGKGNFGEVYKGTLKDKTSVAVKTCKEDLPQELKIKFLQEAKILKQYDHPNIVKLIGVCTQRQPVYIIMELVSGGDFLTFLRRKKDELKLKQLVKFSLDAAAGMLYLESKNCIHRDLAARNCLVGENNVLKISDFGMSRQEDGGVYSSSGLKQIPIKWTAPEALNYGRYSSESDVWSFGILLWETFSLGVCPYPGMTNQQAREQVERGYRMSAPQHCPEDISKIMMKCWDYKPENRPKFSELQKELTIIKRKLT
Chain of Activin receptor type-2B (Homo sapiens) (Q13705 whole entry): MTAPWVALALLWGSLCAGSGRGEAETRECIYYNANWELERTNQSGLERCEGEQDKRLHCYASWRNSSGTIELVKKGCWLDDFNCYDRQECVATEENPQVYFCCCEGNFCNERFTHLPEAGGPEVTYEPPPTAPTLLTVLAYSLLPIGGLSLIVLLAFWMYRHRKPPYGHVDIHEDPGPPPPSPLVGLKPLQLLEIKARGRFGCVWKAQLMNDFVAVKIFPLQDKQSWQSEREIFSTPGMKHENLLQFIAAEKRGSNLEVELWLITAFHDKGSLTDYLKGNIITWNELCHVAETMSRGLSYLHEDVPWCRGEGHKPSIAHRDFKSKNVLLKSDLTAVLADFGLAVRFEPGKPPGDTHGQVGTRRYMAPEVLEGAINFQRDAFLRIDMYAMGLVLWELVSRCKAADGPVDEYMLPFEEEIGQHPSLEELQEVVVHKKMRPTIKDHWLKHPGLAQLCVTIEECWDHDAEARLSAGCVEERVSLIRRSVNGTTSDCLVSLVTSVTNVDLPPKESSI

SMILES: O=C(N1CCS(=O)(=O)CC1)N1C[C@H](c2ccc(OC(F)(F)F)cc2)C[C@H](c2nc(C3CC3)no2)C1 [BAY-386]
- % Inhibition of Control Agonist Response (Mean n=2) [1]: -3.3%
- % of Control Agonist Response (Mean n=2) [1]: -13%
- residual activity [2]: 100%
- residual activity [3]: 89%
- residual activity [4]: 86%
- residual activity [5]: 100%
- residual activity [6]: 97%
- residual activity [7]: 83%
- residual activity [8]: 100%
- residual activity [9]: 100%
- residual activity [10]: 100%
- residual activity [11]: 100%
- residual activity [12]: 96%
- residual activity [13]: 100%
- residual activity [14]: 100%
- residual activity [15]: 100%
- residual activity [16]: 92%
- residual activity [17]: 100%
- residual activity [18]: 100%
- residual activity [19]: 100%
- residual activity [20]: 100%
- residual activity [21]: 95%
- residual activity [22]: 92%
- residual activity [23]: 100%
- residual activity [24]: 100%
- residual activity [25]: 100%
- residual activity [26]: 94%
- residual activity [27]: 94%
- residual activity [28]: 100%
- residual activity [29]: 98%
- residual activity [30]: 100%
- residual activity [31]: 98%
- residual activity [32]: 100%
- residual activity [33]: 100%
- residual activity [34]: 100%
- residual activity [35]: 100%
- residual activity [36]: 100%
- residual activity [37]: 100%
- residual activity [38]: 100%
- residual activity [39]: 100%
- residual activity [40]: 94%
- residual activity [41]: 75%
- residual activity [42]: 95%
- residual activity [43]: 98%
- residual activity [44]: 100%
- inhibition [45]: -5.32%

SMILES: Cc1noc([C@H]2C[C@@H](c3ccc(C(F)(F)F)cc3)CN(C(=O)N3CCS(=O)(=O)C3)C2)n1 [BAY-448]
- % Inhibition of Control Agonist Response (Mean n=2) [1]: 1.2%
- % of Control Agonist Response (Mean n=2) [1]: -2%
- residual activity [2]: 100%
- residual activity [3]: 100%
- residual activity [4]: 100%
- residual activity [5]: 100%
- residual activity [6]: 100%
- residual activity [7]: 100%
- residual activity [8]: 100%
- residual activity [9]: 83%
- residual activity [10]: 100%
- residual activity [11]: 100%
- residual activity [12]: 100%
- residual activity [13]: 100%
- residual activity [14]: 82%
- residual activity [15]: 100%
- residual activity [16]: 82%
- residual activity [17]: 82%
- residual activity [18]: 96%
- residual activity [19]: 100%
- residual activity [20]: 100%
- residual activity [21]: 100%
- residual activity [22]: 100%
- residual activity [23]: 65%
- residual activity [24]: 100%
- residual activity [25]: 100%
- residual activity [26]: 100%
- residual activity [27]: 74%
- residual activity [28]: 100%
- residual activity [29]: 100%
- residual activity [30]: 100%
- residual activity [31]: 100%
- residual activity [32]: 93%
- residual activity [33]: 100%
- residual activity [34]: 100%
- residual activity [35]: 88%
- residual activity [36]: 100%
- residual activity [37]: 100%
- residual activity [38]: 87%
- residual activity [39]: 76%
- residual activity [40]: 68%
- residual activity [41]: 99%
- residual activity [42]: 100%
- residual activity [43]: 100%
- residual activity [44]: 68%
- inhibition [45]: 11.5%
